Positions of bridges follow the written chain, without caps; N, C: chain ends. No end group written: not given here.
Key:
[1] = biological target: human Epidermal Growth Factor Receptor (EGFR) (Homo sapiens, UniProt P00533); experiment: Screening of cyclopeptides binding to human EGFR
Description: Using the technique described in WO 2007/010525, a series of new peptides (cyclopeptides) binding to human Epidermal Growth Factor Receptor (EGFR) were generated and tested. After identification of several potential peptide, a few further cycles of optimization were performed.

[2] = In vivo stability of fluorescently marked peptide in blood after tail vein injection; settings: mice
Description: The stability of the fluorescently marked peptide E13.3 alone or bound to 8-armed PEG was evaluated in vivo by injecting the compounds to the tail vein of mice. The blood of the animals was analyzed for the presence of the peptide (fluorescence) at different time intervals. It can be clearly seen from the result presented in FIG. 14 that t0.5 of the free peptide is much shorter (about several minutes) than that of the peptides bound to PEG (t0.5 of about 3.5 hours).

human EGFR = biological target: T1, human EGFR (Homo sapiens, UniProt P00533); experiment: EGFR autophosphorylation ELISA in A431 cells; assay type: cell-based
T1 construct: human EGFR in human epidermoid carcinoma cell line A431; endogenous in cells; host or cells: A431
Description: The effect of several peptides on the phosphorylation levels of human EGFR in human epidermoid carcinoma cell line A431 was assessed by ELISA test. Briefly, exponentially growing A431 cell culture were detaches from the flask with 0.25% trypsin/EDTA solution, and 200 μl of cell suspension were transferred to 96-well plates at the concentration of 2×10^5 cells/ml and grown for about 3 days. Following medium exchange, 50 μl EGF dilutions and EGF+peptides (50 ng/ml and 0.2 mg/ml, respectively) were added. The plate was incubated for 7.5 min at 37° C. EGF-containing medium was removed and the cells were fixed by 150 ul of fixing solution and incubated for 20 min. at room temperature, following which the plate was washed 2 times with triton washing solution. The level of phosphorylates was assessed by incubation with phospho-EGFR (Tyr1045) antibody as a primary antibody and Anti-rabbit IgG as a secondary antibody. […] The normalized percent of inhibition (of the EGFR auto-phosphorylation is presented in FIG. 11 and Table 4. The normalized percent of inhibition is calculated as the fluorescence signal of the test item divided by the fluorescence signal of the control that contains no test item, with the same concentration of EGF.
Efficacy of different concentration of the selected peptide was assessed by ELISA in a similar was as in Example 12. […]

[3] = biological target: T2, eEF2 (Human; Yeast derived) (Homo sapiens, UniProt P13639); experiment: ELISA binding of phage-displayed peptides to eEF2 or BSA; settings: M13 phages expressing the peptide; read after 1.5 min and 30 min; BSA negative control
T2 construct: host or cells: yeast
Description: Binding of Tox 1 and Tox2 to eEF2 was tested by ELISA using eEF2 or BSA as ligands.
0.25 μg of target proteins, eEF2 (Human; Yeast derived) or BSA (negative control) were applied to several wells of maxisorp plate (NUNC) in 50 μl PBS and incubated over night at 4° C. The solutions were removed, and each well was supplemented with 280 μl blocking solution (BSA 2 mg/ml). The plate was incubated 1 hr at 25° C.
To 1.5 ml tubes 100 μl of blocking solution+10^9 pfu (plaque forming units) of M13 phages that express the following peptides: eEF2-binding: RB, LBR1, TB2 (Tox2), Y02, GW (Tox1), DRB, PY, BW were added. The plate was incubated 1 hr at 25° C. The solution were discarded and the wells were washed 7 times with 280 μl washing solution (Tween 20 0.05%).
Each well was supplemented with 50 μl of HRP/Anti-M13 Monoclonal Conjugate (GE Healthcare) diluted 1:5000. The plate was incubated 1 hr at 25° C. The solutions were discarded and the wells were washed 7 times with 280 μl washing solution (Tween 20 0.05%). Each well was supplemented with 50 μl of TMB (T0440; Sigma).
The plate was photographed using a scanner after incubation time of 1.5 min and 30 min.

eEF2 = biological target: T3, eEF2 (Homo sapiens, UniProt P13639); experiment: in vitro transcription/translation system (HeLa lysate, 1-Step Human Coupled IVT Kit, pCFE-GFP DNA); assay type: biochemical; settings: peptide 5 μM; 4 hr at 30° C.; versus positive control without peptide and non eEF2-binding control peptide
T3 construct: in vitro transcription/translation system using HeLa Lysate system; host or cells: HeLa lysate (1-Step Human Coupled IVT Kit-DNA)
Description: The effect of Tox1 and Tox2 was tested in the in vitro transcription/translation system using HeLa Lysate system 1-Step Human Coupled IVT Kit-DNA (ThermoFisher Scientific). The following peptides were tested: GW (Tox1), DRB RB, TB2 (Tox2), and BW. In addition, a non eEF2-binding control peptide, GR, was also tested.
The IVT Kit components were mixed, and one portion was taken out to serve as a negative control. The rest of the mix was supplemented with pCFE-GFP DNA. This DNA, when transcribed and translated gives a fluorescence protein, GFP. The extent of fluorescence gives a measure of the extent of protein synthesis.
The mix was split into […] aliquots. Each aliquot was supplemented with lml of one concentration of a specific peptide. A positive control was supplemented with lml of PBS. The reaction mixtures were incubated 4 hr at 30° C.
[…] of PBS were added to each reaction mixtures. The mixtures were transferred to a 96 well black ELISA plate, and the fluorescence was measured at ex/em 482/512 nm.

human PD-L1 = human PD-L1 (Homo sapiens, UniProt Q9NZQ7); experiment: Screening of cyclopeptides binding to human PD-L1
Description: Using the technique described in WO 2007/010525, a series of new peptides (cyclopeptides) binding to binding to a human PD-L1 were generated and tested. After identification of several potential peptides, a few further cycles of optimization were performed.

A549 = experiment: Viability of A549 cells, alamarBlue; assay type: cell-based, human; settings: all tested concentrations
Description: (§1) The anti-cancer activity of E13.3 was assessed using several cancer cell lines (A549—human lung carcinoma cell line and FaDu—human pharyngeal carcinoma cell line). The cell cultures were incubated in the presence or absence of E13.3 (at different concentrations) and tested for viability using alamarBlue reagent. The results are presented on FIG. 15.

NCI-H1650 tumor = experiment: Accumulation of fluorescein-labelled E13.3-PEG in kidney, liver and tumor of xenograft mice; assay type: in vivo
Description: E13.3-PEG was labeled with Flourescein and injected IV to Xenograft mice bearing subcutaneous NCI-H1650 tumor (lung cancer). Following anesthesia, kidney, liver and tumor were collected at specific time points and the fluorescence was measured.

FaDu = experiment: Viability of FaDu cells, alamarBlue; assay type: cell-based, human; settings: all tested concentrations
Description: as §1

A431 cells = experiment: Toxicity of PEG constructs on A431 cells, microscope images after 48 hours; assay type: cell-based, human
Description: (§2) A construct comprising a multi-arm-PEG scaffold bound to E13.3 targeting peptide having the sequence SEQ ID NO: 1 ([…]) and a toxin selected from BIMBH3 (referred also as BIM and having the sequence SEQ ID NO: 5 […]) or a combination of Tox1 and Tox2 was generated. The scaffolds were prepared as described in Example 5 and is denoted as PEG-E13.3-Tox1-Tox2 and PEG-13.3-BIM, accordingly
(§3) A431 cells (human squamous carcinoma express about 100,000 copies of EGFR on each cell) and MCF-7 cells (breast cancer cell expressing about 3,000 copies of EGFR on each cell) were thawed and cultivated to achieve exponentially growing cultures. Cells were collected, counted and seeded at the density of 7,000 cells/well and 5,000 cells/well, respectively, in a 96 well tissue culture plate.
(§4) The plates were incubated until the next day at the following conditions: 37±1° C., humidified, and 5±0.5% CO2/air, to enable cells adherence to the wells.
(§5) The cell viability of A549 cell was tested using Alamar Blue viability assay. At the next day following the seeding, Growth Media was replaced with 200 μl Assay Media that contained 2% FBS and Test Items at different concentrations of the construct (1, 3 and 8 μM), or Vehicle Control (PBS; concentration-0). Plates were incubated at 37±1° C., humidified 5±0.5% CO2/air. […]

MCF-7 cells = experiment: Toxicity of PEG constructs on MCF-7 cells, microscope images after 48 hours; assay type: cell-based, human
Description: as §2, §3, §4, §5

[4] = 1, 3 and 8 μM, 48 hours, images

Sequence of human PD-L1 (Q9NZQ7 19-290): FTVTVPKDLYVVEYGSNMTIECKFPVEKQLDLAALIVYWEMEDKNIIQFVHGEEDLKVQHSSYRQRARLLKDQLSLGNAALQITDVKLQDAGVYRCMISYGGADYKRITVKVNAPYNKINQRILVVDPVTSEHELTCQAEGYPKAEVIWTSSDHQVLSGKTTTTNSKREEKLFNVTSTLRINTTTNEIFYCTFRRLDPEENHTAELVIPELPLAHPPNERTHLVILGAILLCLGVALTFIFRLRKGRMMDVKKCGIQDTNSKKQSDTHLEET

CHPGDKQEDPNCLQADK [E13.3]
affinity to the receptor at its binding site [1]: high affinity
t0.5 in blood ([2]; free peptide): about several
Normalized Percent of EGFR autophosphorylation inhibition (human EGFR; A431, EGF 50 ng/ml, peptide 0.2 mg/ml, 7.5 min at 37° C., phospho-EGFR (Tyr1045)): 99.4%
IC50 (human EGFR; Example 12, read-out: calculated IC50 of EGFR autophosphorylation inhibition): 2 µM

Cys-Arg-Arg-Gly-Ser-Arg-Ala-Ser-Gly-Ala-His-Cys (CRRGSRASGAHC; disulfide 1-12) [Tox2]
binding to eEF2 (ELISA signal) [3]: strongest effect
GFP fluorescence (extent of protein synthesis) (eEF2): highest effect

Cys-Ser-Ala-Arg-Trp-Gly-Pro-Thr-Met-Pro-Trp-Cys (CSARWGPTMPWC; disulfide 1-12) [Tox1]
GFP fluorescence (extent of protein synthesis) (eEF2): highest effect

CysGluGlyLeuProAlaAspTrpAlaAlaAlaCys (CEGLPADWAAAC; also: cyclic, mode not given here) [PD-L1-GR]
affinity to the receptor at its binding site (human PD-L1): high affinity

E13.3-PEG: E13.3 bound to 8 arm PEG Succinimidyl Carboxymethyl Ester, MW 73,000 (Ac-CHPGDKQEDPNCLQADK; not fully specified; cysteine pairing not given here; also: one amine Dde-protected, site not given here)
t0.5 in blood ([2]; bound to 8-armed PEG): about 3.5 hours
viability of cancer cells (A549): successfully reduce the viability
interaction with and internalization by cancer cells isolated from tumor (NCI-H1650 tumor; 1 hour and 24 hour after IV injection): most of the cancer cells interact with E13.3-PEG and internalize the fluorescent peptide
fluorescence in kidney and liver (NCI-H1650 tumor; IV, NCI-H1650 xenograft mice): fast increase in the fluorescence in kidney and liver with a typical elimination curve afterwards
fluorescence in tumor (cancer cells) (NCI-H1650 tumor; IV, NCI-H1650 xenograft mice): accumulated in the cancer cells
viability of cancer cells (FaDu): successfully reduce the viability

PEG-E13.3-Tox1-Tox2: multi-arm-PEG scaffold bound to E13.3 targeting peptide and a combination of Tox1 and Tox2 (peptide 1 Ac-CHPGDKQEDPNCLQADK; peptide 2 CSARWGPTMPWC; peptide 3 CRRGSRASGAHC; not fully specified (bridges); cysteine pairing not given here; also: multi-arm PEG scaffold carrying E13.3, Tox1 and Tox2)
effect on cell aggregates / proportion of dead cells (A431 cells; [4]): proportion of dead cells increased
potency of cell death compared with the BIM construct (A431 cells; images at 48 hours): more potent
effect on cell aggregates / proportion of dead cells (MCF-7 cells; [4]): proportion of dead cells increased
potency of cell death compared with the BIM construct (MCF-7 cells; images at 48 hours): more potent
